Data: the supplement of paper PMC11451515

Key:
Details in all cases: 48 h
SEM cells [1] = assay: cell viability relative to DMSO control; higher = less cytotoxic
Method in brief: (§1)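 Before seeding, each leukemia line was adapted for at least four passages in each medium. NOMO1 or SEM cells (500 cells/well) and P12-Ichikawa cells (1000 cells/well) went into 1536-well plates at 5 μl, then received library compounds in DMSO by pin dosing across 11 threefold concentrations, 47 μM to 0.79 nM. Readout was CellTiter-Glo One luminescence after 48 h at 37°C, and viability is given as a per-plate percentage of DMSO wells, with cell-free wells as background.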

P12-Ichikawa [2] = assay: as above
Method in brief: as §1

NOMO1 [3] = assay: as above
Method in brief: as §1

SEM cells [4] = assay: AUC of viability dose-response curve (% viability x log10 dose units); higher = less sensitive
Method in brief: (§2)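 Leukemia cells adapted to each medium were seeded at 500 or 1000 cells/well in 1536-well plates and dosed with library compounds in DMSO at 11 threefold doses from 47 μM to 0.79 nM for 48 h at 37°C. CellTiter-Glo One luminescence was normalised per plate to DMSO and cell-free wells, then fitted with a four-parameter log-logistic model over log10 doses. Area under the curve was taken from this fit by the trapezoidal rule, with curves above full viability scaled and curves failing quality control removed.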

P12-Ichikawa [5] = assay: as above
Method in brief: as §2

NOMO1 [6] = assay: as above
Method in brief: as §2

C[C@]12CC[C@H]3[C@@H](CCC/4=C/C(=O)CC[C@]34C)[C@@H]1CC[C@@H]2O
cell viability [%]
Details	NOMO1 [3]	P12-Ichikawa [2]	SEM cells [1]
HPLM + 10% dialyzed FBS, 0.000781 µM	93.4	111	94.2
HPLM + 10% dialyzed FBS, 0.00234 µM	113	121	120
HPLM + 10% dialyzed FBS, 0.00702 µM	126	121	124
HPLM + 10% dialyzed FBS, 0.0211 µM	111	126	128
HPLM + 10% dialyzed FBS, 0.0632 µM	136	128	118
HPLM + 10% dialyzed FBS, 0.19 µM	126	124	139
HPLM + 10% dialyzed FBS, 0.569 µM	123	128	122
HPLM + 10% dialyzed FBS, 1.71 µM	111	132	120
HPLM + 10% dialyzed FBS, 5.12 µM	130	126	136
HPLM + 10% dialyzed FBS, 15.4 µM	127	125	125
HPLM + 10% dialyzed FBS, 46.1 µM	137	127	130
RPMI 5 mM glucose + 10% FBS, 0.000781 µM	109	–	107
RPMI 5 mM glucose + 10% FBS, 0.00234 µM	118	–	110
RPMI 5 mM glucose + 10% FBS, 0.00702 µM	134	–	118
RPMI 5 mM glucose + 10% FBS, 0.0211 µM	143	–	112
RPMI 5 mM glucose + 10% FBS, 0.0632 µM	146	–	139
RPMI 5 mM glucose + 10% FBS, 0.19 µM	145	–	129
RPMI 5 mM glucose + 10% FBS, 0.569 µM	129	–	118
RPMI 5 mM glucose + 10% FBS, 1.71 µM	134	–	133
RPMI 5 mM glucose + 10% FBS, 5.12 µM	147	–	140
RPMI 5 mM glucose + 10% FBS, 15.4 µM	153	–	157
RPMI 5 mM glucose + 10% FBS, 46.1 µM	147	–	109
RPMI 5 mM glucose + 10% dialyzed FBS, 0.000781 µM	107	–	129
RPMI 5 mM glucose + 10% dialyzed FBS, 0.00234 µM	121	–	113
RPMI 5 mM glucose + 10% dialyzed FBS, 0.00702 µM	135	–	120
RPMI 5 mM glucose + 10% dialyzed FBS, 0.0211 µM	137	–	121
RPMI 5 mM glucose + 10% dialyzed FBS, 0.0632 µM	142	–	112
RPMI 5 mM glucose + 10% dialyzed FBS, 0.19 µM	141	–	130
RPMI 5 mM glucose + 10% dialyzed FBS, 0.569 µM	147	–	153
RPMI 5 mM glucose + 10% dialyzed FBS, 1.71 µM	129	–	134
RPMI 5 mM glucose + 10% dialyzed FBS, 5.12 µM	145	–	130
RPMI 5 mM glucose + 10% dialyzed FBS, 15.4 µM	138	–	131
RPMI 5 mM glucose + 10% dialyzed FBS, 46.1 µM	143	–	145

AUC of viability dose-response curve
Details	NOMO1 [6]	P12-Ichikawa [5]	SEM cells [4]
HPLM + 10% dialyzed FBS	463	468	467
RPMI 5 mM glucose + 10% FBS	460	467	450
RPMI 5 mM glucose + 10% dialyzed FBS	462	470	444

C[C@H]1[C@@H](C(=O)C[C@H]2O[C@@H]3O[C@]4(C)CC[C@H]5[C@H](C)CC[C@@H]([C@H]2C)[C@@]35OO4)O[C@@H]2O[C@]3(C)CC[C@H]4[C@H](C)CC[C@@H]1[C@@]24OO3
cell viability [%]
Details	NOMO1 [3]	P12-Ichikawa [2]	SEM cells [1]
HPLM + 10% dialyzed FBS, 0.000781 µM	114	117	92.6
HPLM + 10% dialyzed FBS, 0.00234 µM	121	113	106
HPLM + 10% dialyzed FBS, 0.00702 µM	122	116	95.1
HPLM + 10% dialyzed FBS, 0.0211 µM	102	124	83.9
HPLM + 10% dialyzed FBS, 0.0632 µM	127	115	102
HPLM + 10% dialyzed FBS, 0.19 µM	115	119	84.1
HPLM + 10% dialyzed FBS, 0.569 µM	116	113	84.6
HPLM + 10% dialyzed FBS, 1.71 µM	102	110	91.5
HPLM + 10% dialyzed FBS, 5.12 µM	111	90.1	89
HPLM + 10% dialyzed FBS, 15.4 µM	67	86.3	75.4
HPLM + 10% dialyzed FBS, 46.1 µM	21	14.4	6.82
RPMI 5 mM glucose + 10% FBS, 0.000781 µM	103	117	87.2
RPMI 5 mM glucose + 10% FBS, 0.00234 µM	117	130	112
RPMI 5 mM glucose + 10% FBS, 0.00702 µM	102	121	116
RPMI 5 mM glucose + 10% FBS, 0.0211 µM	99.4	121	109
RPMI 5 mM glucose + 10% FBS, 0.0632 µM	110	120	113
RPMI 5 mM glucose + 10% FBS, 0.19 µM	110	119	107
RPMI 5 mM glucose + 10% FBS, 0.569 µM	103	102	105
RPMI 5 mM glucose + 10% FBS, 1.71 µM	109	104	96.8
RPMI 5 mM glucose + 10% FBS, 5.12 µM	105	102	72.1
RPMI 5 mM glucose + 10% FBS, 15.4 µM	58.4	82.7	53.1
RPMI 5 mM glucose + 10% FBS, 46.1 µM	24.8	9.74	5.74
RPMI 5 mM glucose + 10% dialyzed FBS, 0.000781 µM	114	120	96.3
RPMI 5 mM glucose + 10% dialyzed FBS, 0.00234 µM	131	111	114
RPMI 5 mM glucose + 10% dialyzed FBS, 0.00702 µM	105	112	115
RPMI 5 mM glucose + 10% dialyzed FBS, 0.0211 µM	120	113	99.7
RPMI 5 mM glucose + 10% dialyzed FBS, 0.0632 µM	122	110	113
RPMI 5 mM glucose + 10% dialyzed FBS, 0.19 µM	107	101	109
RPMI 5 mM glucose + 10% dialyzed FBS, 0.569 µM	93.9	98.8	116
RPMI 5 mM glucose + 10% dialyzed FBS, 1.71 µM	95.2	102	96.9
RPMI 5 mM glucose + 10% dialyzed FBS, 5.12 µM	96.2	93.6	92.9
RPMI 5 mM glucose + 10% dialyzed FBS, 15.4 µM	69	56.1	75
RPMI 5 mM glucose + 10% dialyzed FBS, 46.1 µM	24.6	15.4	7.69

AUC of viability dose-response curve
Details	NOMO1 [6]	P12-Ichikawa [5]	SEM cells [4]
HPLM + 10% dialyzed FBS	435	433	411
RPMI 5 mM glucose + 10% FBS	436	435	407
RPMI 5 mM glucose + 10% dialyzed FBS	418	421	432
